{
  "source": "patent US20180153872A1",
  "about": "“HETEROARYL CARBONITRILES FOR THE TREATMENT OF DISEASE” (OPKO Health, Inc., priority 2015, published 2018)",
  "key": {"NK2 receptor": {"biological_target": "T1, NK2 receptor (Homo sapiens, UniProt P21452)", "T1 sequence (P21452 1-398)": "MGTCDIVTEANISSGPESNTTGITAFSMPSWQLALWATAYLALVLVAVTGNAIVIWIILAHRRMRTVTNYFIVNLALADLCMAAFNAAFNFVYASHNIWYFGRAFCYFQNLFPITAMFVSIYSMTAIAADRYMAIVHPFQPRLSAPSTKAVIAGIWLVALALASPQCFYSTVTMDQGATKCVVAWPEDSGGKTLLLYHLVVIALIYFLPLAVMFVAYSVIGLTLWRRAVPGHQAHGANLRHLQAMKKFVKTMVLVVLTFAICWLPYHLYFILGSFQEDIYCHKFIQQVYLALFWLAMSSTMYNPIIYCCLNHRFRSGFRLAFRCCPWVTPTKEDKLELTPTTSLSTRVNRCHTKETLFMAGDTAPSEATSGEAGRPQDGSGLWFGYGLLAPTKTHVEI", "assay": "NK2 receptor affinity", "assay_type": "binding", "source_text": "(§1) A compound of formula I (also designated SCH 900978) is a potent, selective, competitive neurokinin-1 (NK-1) receptor antagonist that is effective as an oral administered drug for the treatment of cough and meets this unmet medical need. In addition, this drug is effective for the treatment of overactive bladder (OAB) and other selected indications including major depression and alcohol dependency. […] The present invention comprises a compound of formula I having an effective dose for 90% inhibition [ED90]=0.2 mg/kg as determined in an in vivo pharmacodynamic model of NK1 receptor activity (gerbil foot thumping).\n(§2) SCH900978 was also tested for NK2 and NK3 receptor activity and in 106 other receptors, transporters, enzymes and ion channels and had greater than 1000 fold lower affinity for these than for the NK1 receptor."}, "hERG gene current": {"biological_target": "hERG gene current (Homo sapiens, UniProt Q12809)", "sequence (Q12809 whole entry)": "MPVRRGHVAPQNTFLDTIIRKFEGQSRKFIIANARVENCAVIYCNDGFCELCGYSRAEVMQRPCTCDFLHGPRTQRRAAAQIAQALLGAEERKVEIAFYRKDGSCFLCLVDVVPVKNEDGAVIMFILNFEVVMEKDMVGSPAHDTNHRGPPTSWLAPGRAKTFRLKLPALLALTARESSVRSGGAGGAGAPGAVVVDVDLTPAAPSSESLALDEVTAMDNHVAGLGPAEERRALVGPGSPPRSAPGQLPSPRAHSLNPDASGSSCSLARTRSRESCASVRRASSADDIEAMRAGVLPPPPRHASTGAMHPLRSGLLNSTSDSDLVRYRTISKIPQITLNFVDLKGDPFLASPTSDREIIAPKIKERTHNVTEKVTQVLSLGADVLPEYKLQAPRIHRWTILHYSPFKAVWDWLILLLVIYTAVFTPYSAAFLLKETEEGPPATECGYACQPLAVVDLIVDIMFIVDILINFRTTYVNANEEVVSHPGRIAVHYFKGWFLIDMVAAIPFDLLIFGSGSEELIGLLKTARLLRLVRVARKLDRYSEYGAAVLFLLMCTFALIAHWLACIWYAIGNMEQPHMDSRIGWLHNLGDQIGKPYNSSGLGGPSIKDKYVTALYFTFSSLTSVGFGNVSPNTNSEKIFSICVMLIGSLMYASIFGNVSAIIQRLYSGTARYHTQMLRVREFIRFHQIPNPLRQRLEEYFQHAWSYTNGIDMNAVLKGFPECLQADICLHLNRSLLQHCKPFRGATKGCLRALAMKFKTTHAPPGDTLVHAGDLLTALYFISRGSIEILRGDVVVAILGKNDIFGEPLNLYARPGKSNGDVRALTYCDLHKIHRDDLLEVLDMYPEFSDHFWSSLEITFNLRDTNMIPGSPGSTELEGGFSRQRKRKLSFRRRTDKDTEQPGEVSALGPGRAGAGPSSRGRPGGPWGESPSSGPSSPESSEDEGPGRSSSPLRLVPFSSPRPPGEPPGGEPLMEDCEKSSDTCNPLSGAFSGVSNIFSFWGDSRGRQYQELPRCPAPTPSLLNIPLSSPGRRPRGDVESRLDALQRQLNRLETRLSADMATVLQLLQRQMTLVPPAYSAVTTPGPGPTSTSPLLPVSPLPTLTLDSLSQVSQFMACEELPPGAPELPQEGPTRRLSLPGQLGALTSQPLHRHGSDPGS", "assay": "hERG current inhibition", "assay_type": "cell-based", "method": "A series of in vitro and in vivo studies examined the effects of SCH900978 on cardiovascular, respiratory and CNS functions. No adverse effects were observed. The NOAEL was ≥25 mg/kg in male rats, ≥12.5 mg/kg in female rats and ≥10 mg/kg in male cynomolgus monkeys; each dose was the highest dose tested."}, "NK1 receptors": {"biological_target": "NK1 receptors (Rattus norvegicus, UniProt P14600)", "sequence (P14600 whole entry)": "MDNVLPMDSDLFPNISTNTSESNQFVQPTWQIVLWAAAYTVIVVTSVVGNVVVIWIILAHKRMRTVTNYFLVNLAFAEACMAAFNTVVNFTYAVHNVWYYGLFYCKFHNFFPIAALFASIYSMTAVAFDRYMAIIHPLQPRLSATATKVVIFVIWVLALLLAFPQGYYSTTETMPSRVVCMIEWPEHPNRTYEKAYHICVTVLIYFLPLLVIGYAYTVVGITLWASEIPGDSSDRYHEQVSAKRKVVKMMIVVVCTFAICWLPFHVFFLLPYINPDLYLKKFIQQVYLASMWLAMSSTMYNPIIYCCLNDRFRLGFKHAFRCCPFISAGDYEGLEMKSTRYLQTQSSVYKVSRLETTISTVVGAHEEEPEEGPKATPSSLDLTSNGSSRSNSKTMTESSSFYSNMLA", "assay": "NK1 receptor radioligand binding, rat", "details": "no unit, Ki in nM", "method": "as §2"}, "NK1 receptor [1]": {"biological_target": "NK1 receptor (Homo sapiens, UniProt P25103)", "sequence (P25103 whole entry)": "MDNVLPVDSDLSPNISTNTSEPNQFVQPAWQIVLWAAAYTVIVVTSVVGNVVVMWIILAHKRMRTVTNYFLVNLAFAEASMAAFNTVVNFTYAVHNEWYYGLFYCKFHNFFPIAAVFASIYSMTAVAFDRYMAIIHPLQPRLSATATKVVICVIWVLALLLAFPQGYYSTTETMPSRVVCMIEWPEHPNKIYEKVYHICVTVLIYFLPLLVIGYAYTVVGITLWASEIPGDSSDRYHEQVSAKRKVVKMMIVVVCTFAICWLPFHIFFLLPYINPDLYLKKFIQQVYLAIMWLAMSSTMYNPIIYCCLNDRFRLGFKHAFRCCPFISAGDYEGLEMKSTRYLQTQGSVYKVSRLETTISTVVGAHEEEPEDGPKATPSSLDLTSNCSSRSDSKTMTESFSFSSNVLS", "assay": "Block of GR-73632-mediated calcium efflux in cells expressing the human NK1 receptor (Schild analysis)", "assay_type": "cell-based", "details": "GR-73632-stimulated calcium efflux, read-out: Kb, equilibrium dissociation constant determined by Schild analysis", "source_text": "as §1, §2"}, "NK1 receptor [2]": {"biological_target": "T2, NK1 receptor (Canis lupus familiaris, UniProt Q5DUB3)", "T2 construct": "from tissue; host or cells: living dog", "T2 sequence (Q5DUB3 whole entry)": "as the sequence (P25103 whole entry) above, with P6Q, S12F, S176N, K280E, I358V, P369L, A375T, C386G, S402Y, V405M counted along it", "assay": "Substance P-elicited blood pressure and minute volume changes in dogs", "assay_type": "in vivo", "details": "dog, 0.3 mg/kg oral"}, "Brain penetration, rats": {"assay": "Brain penetration, rats", "assay_type": "in vivo, rat", "method": "(§3) Urinary excretion was also substantial (approximately 20%).\n(§4) The extent of brain penetration by SCH 900978 was evaluated after oral administration of SCH 900978 amorphous hydrochloride to female gerbils (0.1 mg/kg), male Sprague Dawley rats (5 mg/kg), and male guinea pigs (0.3 mg/kg)."}, "log D, octanol/water": {"assay": "log D, octanol/water", "assay_type": "physicochemical", "details": "pH 7.4, octanol/water system", "source_text": "(§5) The present invention comprises a compound having activity in mammalian cough models and is thus useful in the treatment of cough in mammals, including humans, after oral administration. The present invention comprises an oral formulation of a compound of formula I and pharmaceutically acceptable excipients selected from the group consisting of diluents, binders, disintegrants, wetting agents and lubricants. In a preferred embodiment the pharmaceutical composition comprises a compound of formula I (or IIa-IIc) or II and lactose monohydrate, microcrystalline cellulose, povidone, crospovidone, poloxamer 188 and magnesium stearate. The preferred oral form is a capsule. The amount of active ingredient in the capsule or oral dosage form may range from 1 mg to 250 mgs with a preferred range of 10-150 mg with a more preferred range of 20-100 mg per day in humans. The present invention also relates to an NK-1 antagonist (e.g., Formula II) having a half-life of approximately 10-13 days. The present invention further relates to a method of treating pruritus comprising administering a pharmaceutically effective amount of a compound of formula II having a half-life of 10-13 days to a patient in need of treatment thereof. […] The measured onset melting temperature as measured by differential scanning calorimetry (DSC) is 168.9. […]"}, "[3]": {"assay": "Brain penetration, gerbils", "assay_type": "in vivo, gerbil", "method": "as §3, §4"}, "[4]": {"assay": "Metabolic pathways in the mammals tested", "assay_type": "in vivo", "source_text": "as §3"}, "Solubility": {"assay": "Solubility", "assay_type": "physicochemical", "details": "pH 7, aqueous buffer", "source_text": "as §5"}, "capsaicin-induced cough": {"system": "capsaicin-induced cough", "assay": "Capsaicin-induced cough in conscious guinea pigs", "assay_type": "in vivo", "details": "guinea pig", "method": "Inhalation of the irritant capsaicin induces coughing in both animals and humans, in part by releasing substance P from unmyelinated sensory C fibers in the lung. When administered orally to conscious guinea pigs six hours prior to inhalation of aerosolized capsaicin, SCH900978 attenuated capsaicin-induced cough in a dose-dependent manner (ED90=0.04 mg/kg) (FIG. 2)."}, "Plasma protein binding": {"assay": "Plasma protein binding", "assay_type": "in vitro ADME", "details": "all mammals tested and human", "source_text": "as §3"}},
  "data": [
    {"smiles": "C[C@@H](OC[C@@]1(c2ccccc2)CC[C@](C#N)(n2cn[nH]c2=O)CN1)c1cc(C(F)(F)F)cc(C(F)(F)F)c1", "note": "[Compound 42, (3 S,6S)-6-({(1R)-1-[3,5-bis(trifluoromethyl)phenyl]ethoxy}methyl)-3-(5-oxo-1,5dihydro-4H-1,2,4-triazol-4-yl)-6-phenylpiperidine-3-carbonitrile]", "values": [
      {"measurement": "Ki", "setting": "NK2 receptor", "value": "> 1000", "unit": "nM"},
      {"measurement": "fold lower affinity than for the NK1 receptor", "setting": "NK2 receptor; NK2 vs NK1", "value": "greater than 1000 fold"},
      {"measurement": "IC50", "setting": "hERG gene current", "value": 860, "unit": "nM"},
      {"measurement": "Ki", "setting": "NK1 receptors", "value": 4.62, "unit": "nM"},
      {"measurement": "Kb", "setting": "NK1 receptor [1]", "value": 0.17, "unit": "nM"},
      {"measurement": "inhibition of substance P-elicited increase in minute volume", "setting": "NK1 receptor [2]", "value": "maximally inhibited"},
      {"measurement": "inhibition of substance P-elicited reduction in blood pressure", "setting": "NK1 receptor [2]", "value": "maximally inhibited"},
      {"measurement": "crossing of the blood brain barrier", "setting": "Brain penetration, rats", "value": "readily crossed the blood brain barrier"},
      {"measurement": "logD", "setting": "log D, octanol/water", "value": 4.5},
      {"measurement": "crossing of the blood brain barrier", "setting": "[3]", "value": "readily crossed the blood brain barrier"},
      {"measurement": "major metabolic pathways", "setting": "[4]", "value": "oxidation and glucuronidation"},
      {"measurement": "solubility", "setting": "Solubility", "value": 1.8, "unit": "µg/mL"},
      {"measurement": "maximal inhibition of capsaicin-induced cough", "setting": "capsaicin-induced cough", "value": "comparable to that produced by the standard antitussive agents"},
      {"measurement": "ED90, capsaicin-induced cough", "setting": "capsaicin-induced cough; oral, six hours prior to aerosolized capsaicin", "value": 0.04, "unit": "mg/kg"},
      {"measurement": "protein bound", "setting": "Plasma protein binding", "value": "≥ 99.6", "unit": "%"}
    ]}
  ]
}
